Patent publication US20230278972A1, “SUBSTITUTED HALOALKYL SULFONANILIDE HERBICIDES” (FMC Corporation, priority 2020, published 2023)

Key:
Format in all cases: in vivo
[1] = test system: barnyardgrass (Echinochloa crus-galli); assay: Test A preemergence, barnyardgrass; details: Preemergence; for Barnyardgrass plant response rating: visual injury on 0 to 100 scale (0 no effect, 100 complete control), approximately 10 days; for Plant response rating, Barnyardgrass: 0 to 100 scale (0 no effect, 100 complete control)
Procedure, shortened: (§1)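 Postemergence ratings come from foliar sprays onto one- to two-leaf plants of 2 to 10 cm grown in loam/sand; preemergence ratings come from a directed spray onto the soil of newly seeded pots. Formulation was a surfactant-containing non-phytotoxic solvent blend.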

[2] = test system: kochia (Bassia scoparia); assay: Test A preemergence, kochia; details: Preemergence; for Kochia plant response rating: visual injury on 0 to 100 scale (0 no effect, 100 complete control), approximately 10 days; for Plant response rating, Kochia: 0 to 100 scale (0 no effect, 100 complete control)
Procedure, shortened: as §1

[3] = test system: ragweed (common ragweed, Ambrosia artemisiifolia); assay: Test A preemergence, ragweed; details: Preemergence; for Ragweed plant response rating: visual injury on 0 to 100 scale (0 no effect, 100 complete control), approximately 10 days; for Plant response rating, Ragweed: 0 to 100 scale (0 no effect, 100 complete control)
Procedure, shortened: as §1

[4] = test system: Ryegrass, Italian (Italian ryegrass, Lolium multiflorum); assay: Test A preemergence, Ryegrass, Italian; details: Preemergence; for Ryegrass, Italian plant response rating: visual injury on 0 to 100 scale (0 no effect, 100 complete control), approximately 10 days; for Plant response rating, Ryegrass, Italian: 0 to 100 scale (0 no effect, 100 complete control)
Procedure, shortened: as §1

[5] = test system: Foxtail, Giant (giant foxtail, Setaria faberi); assay: Test A preemergence, Foxtail, Giant; details: Preemergence; for Foxtail, Giant plant response rating: visual injury on 0 to 100 scale (0 no effect, 100 complete control), approximately 10 days; for Plant response rating, Foxtail, Giant: 0 to 100 scale (0 no effect, 100 complete control)
Procedure, shortened: as §1

[6] = test system: pigweed (Amaranthus retroflexus); assay: Test A preemergence, pigweed; details: for Pigweed plant response rating: visual injury on 0 to 100 scale (0 no effect, 100 complete control), approximately 10 days; for Plant response rating, Pigweed: 0 to 100 scale (0 no effect, 100 complete control)
Procedure, shortened: (§2)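 Barnyardgrass, wheat and galium were treated postemergence at the one- to two-leaf stage (2 to 10 cm) with chemicals formulated in non-phytotoxic solvent plus surfactant, grown in loam soil–sand pots. Pigweed was sown in the same blend and given a preemergence directed soil spray.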

[7] = test system: barnyardgrass (Echinochloa crus-galli); assay: Test A postemergence, barnyardgrass; details: Postemergence; for Barnyardgrass plant response rating: visual injury vs untreated controls after approx. 10 days
Procedure, shortened: as §2

[8] = test system: kochia (Bassia scoparia); assay: Test A postemergence, kochia; details: Postemergence; for Kochia plant response rating: visual injury vs untreated controls after approx. 10 days
Procedure, shortened: as §1

[9] = test system: ragweed (common ragweed, Ambrosia artemisiifolia); assay: Test A postemergence, ragweed; details: Postemergence; for Ragweed plant response rating: visual injury vs untreated controls after approx. 10 days
Procedure, shortened: as §1

[10] = test system: Ryegrass, Italian (Italian ryegrass, Lolium multiflorum); assay: Test A postemergence, Ryegrass, Italian; details: Postemergence; for Ryegrass, Italian plant response rating: visual injury vs untreated controls after approx. 10 days
Procedure, shortened: as §1

[11] = test system: Foxtail, Giant (giant foxtail, Setaria faberi); assay: Test A postemergence, Foxtail, Giant; details: Postemergence; for Foxtail, Giant plant response rating: visual injury vs untreated controls after approx. 10 days
Procedure, shortened: as §1

[12] = test system: pigweed (Amaranthus retroflexus); assay: Test A postemergence, pigweed; details: Postemergence; for Pigweed plant response rating: visual injury vs untreated controls after approx. 10 days
Procedure, shortened: as §1

[13] = test system: wheat (Triticum aestivum); assay: Test A postemergence, wheat; details: Postemergence; for Wheat plant response rating: visual injury vs untreated controls after approx. 10 days
Procedure, shortened: as §2

[14] = test system: corn (Zea mays); assay: Test A postemergence, corn; details: Postemergence; for Corn plant response rating: visual injury vs untreated controls after approx. 10 days
Procedure, shortened: as §1

[15] = test system: blackgrass (Alopecurus myosuroides); assay: Test A postemergence, blackgrass; details: Postemergence; for Blackgrass plant response rating: visual injury vs untreated controls after approx. 10 days
Procedure, shortened: as §1

[16] = test system: galium (catchweed bedstraw, Galium aparine); assay: Test A postemergence, galium; details: Postemergence; for Galium plant response rating: visual injury vs untreated controls after approx. 10 days
Procedure, shortened: as §2

[17] = 125 g ai/ha, visual injury approx. 10 days, 0 to 100 scale (0 no effect, 100 complete control)
[18] = 500 g ai/ha, 0 to 100 scale (0 no effect, 100 complete control)
[19] = 125 g ai/ha, 0 to 100 scale (0 no effect, 100 complete control)
[20] = 125 g ai/ha, visual injury, approx. 10 days
[21] = 31 g ai/ha, visual injury, approx. 10 days
[22] = 31 g ai/ha, visual injury on 0 to 100 scale (0 no effect, 100 complete control), approx. 10 days
[23] = 500 g ai/ha, visual injury approx. 10 days, 0 to 100 scale (0 no effect, 100 complete control)

Cc1cc(C)c(N(S(=O)(=O)C(F)(F)F)S(=O)(=O)C(F)(F)F)cc1C1=NOC2(CCC3(CC2)OCCO3)C1 [Compound 136]
Barnyardgrass plant response rating ([1]; 125 g ai/ha): 90 | Plant response rating, Barnyardgrass ([1]; 500 g ai/ha): 100 | Kochia plant response rating ([2]; 125 g ai/ha): 80 | Plant response rating, Kochia ([2]; 500 g ai/ha): 90 | Ragweed plant response rating ([3]; 125 g ai/ha): 50 | Plant response rating, Ragweed ([3]; 500 g ai/ha): 80 | Ryegrass, Italian plant response rating ([4]; 125 g ai/ha): 90 | Plant response rating, Ryegrass, Italian ([4]; 500 g ai/ha): 100 | Foxtail, Giant plant response rating ([5]; 125 g ai/ha): 100 | Plant response rating, Foxtail, Giant ([5]; 500 g ai/ha): 100 | Pigweed plant response rating ([6]; 125 g ai/ha): 20 | Plant response rating, Pigweed ([6]; 500 g ai/ha): 70 | Plant response rating, Barnyardgrass [7, 17]: 20 | Barnyardgrass plant response rating [7, 18]: 80 | Plant response rating, Kochia [8, 17]: 30 | Kochia plant response rating [8, 18]: 40 | Plant response rating, Ragweed [9, 19]: 60 | Ragweed plant response rating [9, 18]: 50 | Plant response rating, Ryegrass, Italian [10, 19]: 80 | Ryegrass, Italian plant response rating [10, 18]: 0 | Plant response rating, Foxtail, Giant [11, 17]: 0 | Foxtail, Giant plant response rating [11, 18]: 50 | Plant response rating, Pigweed [12, 19]: 40 | Pigweed plant response rating [12, 18]: 90 | Plant response rating, Wheat [13, 19]: 70 | Wheat plant response rating [13, 18]: 60 | Plant response rating, Corn [14, 17]: 0 | Corn plant response rating [14, 18]: 30 | Plant response rating, Blackgrass [15, 17]: 10 | Blackgrass plant response rating [15, 18]: 20 | Plant response rating, Galium [16, 17]: 70 | Galium plant response rating [16, 18]: 90

Cc1cc(F)c(C(=O)N(C)C)cc1NS(=O)(=O)C(F)(F)F [Compound 215]
Plant response rating, Barnyardgrass [1, 20]: 60 | Plant response rating, Barnyardgrass ([1]; 500 g ai/ha): 90 | Plant response rating, Kochia [2, 20]: 80 | Plant response rating, Kochia ([2]; 500 g ai/ha): 90 | Plant response rating, Ragweed [3, 20]: 0 | Plant response rating, Ragweed ([3]; 500 g ai/ha): 20 | Plant response rating, Ryegrass, Italian [4, 20]: 20 | Plant response rating, Ryegrass, Italian ([4]; 500 g ai/ha): 70 | Plant response rating, Foxtail, Giant [5, 20]: 40 | Plant response rating, Foxtail, Giant ([5]; 500 g ai/ha): 70 | Plant response rating, Pigweed [6, 20]: 100 | Plant response rating, Pigweed ([6]; 500 g ai/ha): 90 | Plant response rating, Barnyardgrass [7, 19]: 0 | Barnyardgrass plant response rating [7, 18]: 40 | Plant response rating, Kochia [8, 19]: 30 | Kochia plant response rating [8, 18]: 70 | Plant response rating, Ragweed [9, 19]: 60 | Ragweed plant response rating [9, 18]: 80 | Plant response rating, Ryegrass, Italian [10, 19]: 0 | Ryegrass, Italian plant response rating [10, 18]: 60 | Plant response rating, Foxtail, Giant [11, 19]: 20 | Foxtail, Giant plant response rating [11, 18]: 50 | Plant response rating, Pigweed [12, 19]: 50 | Pigweed plant response rating [12, 18]: 80 | Plant response rating, Wheat [13, 19]: 30 | Wheat plant response rating [13, 18]: 70 | Plant response rating, Corn [14, 19]: 0 | Corn plant response rating [14, 18]: 60 | Plant response rating, Blackgrass [15, 19]: 0 | Blackgrass plant response rating [15, 18]: 0 | Plant response rating, Galium [16, 19]: 50 | Galium plant response rating [16, 18]: 70

Cc1cc(C)c(N(COC(=O)CC(C)C)S(=O)(=O)C(F)(F)F)cc1C1=NOC2(CCCC2)C1 [Compound 152]
Plant response rating, Barnyardgrass [1, 21]: 0 | Barnyardgrass plant response rating ([1]; 125 g ai/ha): 70 | Plant response rating, Kochia [2, 21]: 0 | Kochia plant response rating ([2]; 125 g ai/ha): 0 | Plant response rating, Ragweed [3, 21]: 0 | Ragweed plant response rating ([3]; 125 g ai/ha): 30 | Plant response rating, Ryegrass, Italian [4, 21]: 0 | Ryegrass, Italian plant response rating ([4]; 125 g ai/ha): 40 | Plant response rating, Foxtail, Giant [5, 21]: 40 | Foxtail, Giant plant response rating ([5]; 125 g ai/ha): 80 | Plant response rating, Pigweed [6, 21]: 30 | Pigweed plant response rating ([6]; 125 g ai/ha): 100 | Plant response rating, Barnyardgrass [7, 22]: 0 | Plant response rating, Barnyardgrass [7, 19]: 10 | Plant response rating, Kochia [8, 22]: 10 | Plant response rating, Kochia [8, 19]: 10 | Plant response rating, Ragweed [9, 22]: 0 | Plant response rating, Ragweed [9, 19]: 40 | Plant response rating, Ryegrass, Italian [10, 22]: 0 | Plant response rating, Ryegrass, Italian [10, 19]: 0 | Plant response rating, Foxtail, Giant [11, 22]: 10 | Plant response rating, Foxtail, Giant [11, 19]: 10 | Plant response rating, Pigweed [12, 22]: 30 | Plant response rating, Pigweed [12, 19]: 60 | Plant response rating, Wheat [13, 22]: 40 | Plant response rating, Wheat [13, 19]: 30 | Plant response rating, Corn [14, 22]: 10 | Plant response rating, Corn [14, 19]: 0 | Plant response rating, Blackgrass [15, 22]: 0 | Plant response rating, Blackgrass [15, 19]: 0 | Plant response rating, Galium [16, 22]: 20 | Plant response rating, Galium [16, 19]: 60

Cc1cc(C)c(N2CC3(CCCCC3)OC2=O)cc1NS(=O)(=O)C(F)(F)F [Compound 279]
Plant response rating, Barnyardgrass [1, 20]: 100 | Barnyardgrass plant response rating ([1]; 500 g ai/ha): 100 | Plant response rating, Kochia [2, 20]: 80 | Kochia plant response rating ([2]; 500 g ai/ha): 90 | Plant response rating, Ragweed [3, 20]: 100 | Ragweed plant response rating ([3]; 500 g ai/ha): 100 | Plant response rating, Ryegrass, Italian [4, 20]: 90 | Ryegrass, Italian plant response rating ([4]; 500 g ai/ha): 100 | Plant response rating, Foxtail, Giant [5, 20]: 100 | Foxtail, Giant plant response rating ([5]; 500 g ai/ha): 100 | Plant response rating, Pigweed [6, 20]: 90 | Pigweed plant response rating ([6]; 500 g ai/ha): 100 | Plant response rating, Barnyardgrass [7, 19]: 20 | Plant response rating, Barnyardgrass [7, 23]: 80 | Plant response rating, Kochia [8, 19]: 40 | Plant response rating, Kochia [8, 23]: 50 | Plant response rating, Ragweed [9, 19]: 80 | Plant response rating, Ragweed [9, 23]: 90 | Plant response rating, Ryegrass, Italian [10, 19]: 0 | Plant response rating, Ryegrass, Italian [10, 23]: 60 | Plant response rating, Foxtail, Giant [11, 19]: 10 | Plant response rating, Foxtail, Giant [11, 23]: 30 | Plant response rating, Pigweed [12, 19]: 50 | Plant response rating, Pigweed [12, 23]: 80 | Plant response rating, Wheat [13, 19]: 0 | Plant response rating, Wheat [13, 23]: 70 | Plant response rating, Corn [14, 19]: 20 | Plant response rating, Corn [14, 23]: 20 | Plant response rating, Blackgrass [15, 19]: 0 | Plant response rating, Blackgrass [15, 23]: 20 | Plant response rating, Galium [16, 19]: 90 | Plant response rating, Galium [16, 23]: 90
